Source: ChEMBL document CHEMBL6103585, “Construction and activity evaluation of novel CHS inhibitors against fungal infections” (Eur J Med Chem, 2025)
≈ marks a conversion by molar mass, not a printed value. Calls of active or inactive are those of the source. No cut-off for these calls is given here.

Assays:
Candida albicans [1] = test: Fungicidal activity against Candida albicans ATCC SC5314 assessed as dead cells (reference value: 8%); assay type: functional
Candida albicans [2] = test: (§1) In vivo antifungal activity against Candida albicans 901 infected in mouse model assessed as decrease in IDO protein expression level at 5 microg/g, iv pre-infected with fungi by intravenous injection followed by compound administration and measured on day 8 by Western blotting analysis; assay type: functional, organism-based; conditions: dose 5.0 µg/g, time 8.0 day
HeLa = test: Cytotoxicity against human HeLa cells incubated for 24 hrs by CCK8 assay; assay type: functional, cell-based
[3] = Toxicity in mouse infected with Candida albicans 901 assessed as change in ALT level in presence of BPE (reference value: 42.8 +/-3.9 IU/L); conditions: in vivo
Candida albicans [4] = test: In vivo antifungal activity against Candida albicans 901 infected in mouse model assessed as body weight gain at 5 microg/g, iv pre-infected with fungi by intravenous injection followed by compound administration and measured on day 8 in presence of 1-MT; assay type: functional, organism-based; conditions: dose 5.0 µg/g, time 8.0 day
Candida albicans [5] = test: as §1, with “PD-L1” for “IDO”, “8 in presence of 1-MT” for “8”; assay type: functional, organism-based; conditions: dose 5.0 µg/g, time 8.0 day
Candida albicans [6] = test: Antifungal activity against fluconazole-resistant Candida albicans 17# assessed as reduction in fungal growth incubated for 72 hrs by broth microdilution method; assay type: functional
Candida albicans [7] = test: (§2) In vivo antifungal activity against Candida albicans 901 infected in mouse model assessed as decrease in PD-L1 protein expression level at 5 microg/g, iv pre-infected with fungi by intravenous injection followed by compound administration and measured on day 8 by Western blotting analysis; assay type: functional, organism-based; conditions: dose 5.0 µg/g, time 8.0 day
A549 = test: Cytotoxicity against human A549 cells incubated for 24 hrs by CCK8 assay; assay type: functional, cell-based; conditions: A549, 24 h
Candida albicans [8] = test: Induction of apoptosis in Candida albicans ATCC SC5314 assessed as early apoptotic cells by V-FITC/PI staining based flow cytometric analysis (reference value: 3.51%); assay type: functional
Candida albicans [9] = test: (§3) In vivo antifungal activity against Candida albicans 901 infected in mouse model assessed as expansion of alveolar spaces in lung at 5 microg/g, iv pre-infected with fungi by intravenous injection followed by compound administration and measured on day 8 by H and E staining based analysis; assay type: functional, organism-based; conditions: dose 5.0 µg/g, time 8.0 day
Candida albicans [10] = test: (§4) In vivo antifungal activity against Candida albicans 901 infected in mouse model assessed as reduction in genetic material content in lung at 5 microg/g, iv pre-infected with fungi by intravenous injection followed by compound administration and measured on day 8 by H and E staining based analysis; assay type: functional, organism-based; conditions: dose 5.0 µg/g, time 8.0 day
[11] = Toxicity in mouse infected with Candida albicans 901 assessed as change in AST level in presence of BPE (reference value: 76.1 +/-4.2 IU/L); conditions: in vivo
Candida albicans [12] = test: Antifungal activity against fluconazole-resistant Candida albicans 901 assessed as reduction in fungal growth incubated for 72 hrs by broth microdilution method; assay type: functional
[13] = Toxicity in mouse infected with Candida albicans 901 assessed as change in CRE level in presence of BPE (reference value: 21.5 +/-1.7 umol/L); conditions: in vivo
[14] = Binding affinity to chitin synthase (unknown origin) assessed as dissociation constant by SPR analysis
Candida albicans [15] = test: (§5) In vivo antifungal activity against Candida albicans 901 infected in mouse model assessed as decrease in IL-2 protein expression level at 5 microg/g, iv pre-infected with fungi by intravenous injection followed by compound administration and measured on day 8 by Western blotting analysis; assay type: functional, organism-based; conditions: dose 5.0 µg/g, time 8.0 day
Candida albicans [16] = test: as §2, with “8 in presence of BPE” for “8”; assay type: functional, organism-based; conditions: dose 5.0 µg/g, time 8.0 day
Candida tropicalis = test: Antifungal activity against Candida tropicalis ATCC 1369 assessed as fungal growth inhibition incubated for 72 hrs by broth microdilution method; assay type: functional
Candida albicans [17] = test: In vivo antifungal activity against Candida albicans 901 infected in mouse model assessed as body weight gain at 5 microg/g, iv pre-infected with fungi by intravenous injection followed by compound administration and measured on day 8; assay type: functional, organism-based; conditions: dose 5.0 µg/g, time 8.0 day
[18] = Toxicity in mouse infected with Candida albicans 901 assessed as change in ALT level (reference value: 42.8 +/-3.9 IU/L); conditions: in vivo
Cryptococcus neoformans = test: Antifungal activity against Cryptococcus neoformans ZKCC 2209 assessed as fungal growth inhibition incubated for 72 hrs by broth microdilution method; assay type: functional
Candida albicans [19] = test: as §4, with “8 in presence of BPE” for “8”; assay type: functional, organism-based; conditions: dose 5.0 µg/g, time 8.0 day
Candida albicans [20] = test: Antifungal activity against fluconazole-resistant Candida albicans 632 assessed as reduction in fungal growth incubated for 72 hrs by broth microdilution method; assay type: functional
Candida albicans [21] = test: as §1, with “8 in presence of 1-MT” for “8”; assay type: functional, organism-based; conditions: dose 5.0 µg/g, time 8.0 day
Candida albicans [22] = test: Induction of apoptosis in Candida albicans ATCC SC5314 assessed as late apoptotic cells by V-FITC/PI staining based flow cytometric analysis (reference value: 0.40%); assay type: functional
[23] = Toxicity in mouse infected with Candida albicans 901 assessed as change in BUN level in presence of 1-MT (reference value: 11.4 +/-1.5 mmol/L); conditions: in vivo
Candida albicans [24] = test: as §1, with “8 in presence of BPE” for “8”; assay type: functional, organism-based; conditions: dose 5.0 µg/g, time 8.0 day
Nakaseomyces glabratus = test: Antifungal activity against Candida glabrata assessed as fungal growth inhibition incubated for 72 hrs by broth microdilution method; assay type: functional
Candida albicans [25] = test: Antifungal activity against Candida albicans ATCC SC5314 assessed as fungal growth inhibition incubated for 72 hrs by broth microdilution method; assay type: functional
Candida albicans [26] = test: (§6) In vivo antifungal activity against Candida albicans 901 infected in mouse model assessed as decrease in IFN-gamma protein expression level at 5 microg/g, iv pre-infected with fungi by intravenous injection followed by compound administration and measured on day 8 by Western blotting analysis; assay type: functional, organism-based; conditions: dose 5.0 µg/g, time 8.0 day
Candida albicans [27] = test: Induction of ROS generation in Candida albicans ATCC SC5314 assessed as increase in fluorescence intensity incubated for 12 hrs by fluorescence microscopic analysis; assay type: functional, organism-based
Candida albicans [28] = test: as §3, with “recovery” for “expansion”, “structures to normal state” for “spaces”, “8 in presence of BPE” for “8”; assay type: functional, organism-based; conditions: dose 5.0 µg/g, time 8.0 day
Candida albicans [29] = test: as §6, with “8 in presence of BPE” for “8”; assay type: functional, organism-based; conditions: dose 5.0 µg/g, time 8.0 day
Candida albicans [30] = test: as §5, with “8 in presence of 1-MT” for “8”; assay type: functional, organism-based; conditions: dose 5.0 µg/g, time 8.0 day
Candida albicans [31] = test: as §3, with “recovery” for “expansion”, “structures to normal state” for “spaces”, “8 in presence of 1-MT” for “8”; assay type: functional, organism-based; conditions: dose 5.0 µg/g, time 8.0 day
[32] = Toxicity in mouse infected with Candida albicans 901 assessed as change in BUN level (reference value: 11.4 +/-1.5 mmol/L); conditions: in vivo

Compound: O=C(CNC(=O)c1nc2ccc(Cl)cc2c(=O)[nH]1)NCC(=O)c1ccccc1
- Activity (Candida albicans [1]): 97%
- Activity (Candida albicans [2]): Active
- IC50 (HeLa): > 50 µM
- Activity [3]: 43.6 IU/L
- Activity (Candida albicans [4]): Active
- Activity (Candida albicans [5]): Active
- MIC50 (Candida albicans [6]): 4 µg/mL (≈ 10 µM)
- Activity (Candida albicans [7]): Active
- IC50 (A549): > 50 µM
- Activity (Candida albicans [8]): 14.9%
- Activity (Candida albicans [9]): Active
- Activity (Candida albicans [10]): Active
- Activity [11]: 70.4 IU/L
- MIC50 (Candida albicans [12]): 4 µg/mL (≈ 10 µM)
- Activity [13]: 16.3 µmol/L
- Kd [14]: 0.00752 µM
- Activity (Candida albicans [15]): Active
- Activity (Candida albicans [16]): Active
- MIC50 (Candida tropicalis): 0.5 µg/mL (≈ 1.25 µM)
- Activity (Candida albicans [17]): Active
- Activity [18]: 33.6 IU/L
- MIC50 (Cryptococcus neoformans): 1 µg/mL (≈ 2.51 µM)
- Activity (Candida albicans [19]): Active
- MIC50 (Candida albicans [20]): 2 µg/mL (≈ 5.01 µM)
- Activity (Candida albicans [21]): Active
- Activity (Candida albicans [22]): 12.1%
- Activity [23]: 10.3 mmol/L
- Activity (Candida albicans [24]): Active
- MIC50 (Nakaseomyces glabratus): 2 µg/mL (≈ 5.01 µM)
- MIC50 (Candida albicans [25]): 1 µg/mL (≈ 2.51 µM)
- Activity (Candida albicans [26]): Active
- Activity (Candida albicans [27]): Active
- Activity (Candida albicans [28]): Active
- Activity (Candida albicans [29]): Active
- Activity (Candida albicans [30]): Active
- Activity (Candida albicans [31]): Active
- Activity [32]: 8.2 mmol/L
